Legend:
[1] = test system: PANC-1 subcutaneous human pancreatic cancer xenografts; test: PANC-1 Subcutaneous Human Pancreatic Cancer Xenograft Mouse Model
Description: Temperature: 22±3° C. Humidity: 50±20%. Light cycle: 12 hours light and 12 hours dark. Cages: Polycarbonate cages of 300 mm×180 mm×150 mm embedded with the soft wood material were used. The bedding was changed twice a week. Diet: Animals had free access to a certified commercial laboratory diet. Concentrations of contaminants in the diet are routinely analyzed by the manufacturers to ensure the contaminants are below their allowable maximum and thus would not affect the tumor growth.
Water: Animals had free access to sterile drinking water. Cage identification: The identification labels for each cage contained the following information: number of animals, sex, strain, date received, treatment, group number and the starting date of the treatment. Briefly, PANC-1 cell line was originally purchased from the ATCC (CRL-1469) and the PANC-1 primary cell line was derived from the PANC-1 subcutaneously xenograft tumors. The PANC-1 primary cells were maintained in vitro as monolayer culture in DMEM medium supplemented with 10% heat inactivated fetal bovine serum, 100 U/ml penicillin and 100 μg/ml streptomycin and L-glutamine (2 mM) at 37° C. in an atmosphere of 5% CO2 air. The cells growing in exponential phase were harvested and counted for tumor inoculation.
Tumor Cell Inoculation and Randomization. Each animal was inoculated subcutaneously on the right flank with the PANC-1 primary tumor cells (5×10^6/animal) in 0.1 mL of PBS. Tumor development was allowed undisrupted until mean tumor volume reached approximately 85 mm^3. Animals were then randomized into 6 groups, with each group consisting of 8 animals. The test articles were administered to the tumor-bearing animals according to predetermined regimens. […] At the time of routine monitoring, the animals were checked for any effects of tumor growth on normal behavior such as mobility, food and water consumption (by looking only), body weight (BW) gain/loss (BW was measured twice weekly), eye/hair matting and any other abnormal effect. Death and observed clinical signs were recorded on the basis of the numbers of animals within each subset.
Tumor Measurement and the Endpoints: The major endpoint was to evaluate if the tumor growth could be inhibited. Tumor measurement was conducted twice weekly with a caliper and the tumor volume (mm3) is estimated using the formula: TV=a×b^2/2, where a and b are long and short diameters of a tumor, respectively. The tumor sizes were then used for T/C value and TGI (tumor growth inhibition), which are indicators of anti-tumor effectiveness. The T/C value (in percent) is an indication of antitumor effect. T and C are the mean volumes of the treated and control groups, respectively, on a given day. BW change, expressed as %, is calculated using the following formula: BW change (%)=(BW_DayX/BW_Day0)×100, where BW_DayX is BW on a given day, and BW_Day0 was BW on Day 0 (tumor inoculation).
Tumor Sample Collection: Two tumor samples from Group 1, 2 and 3, respectively; six tumor samples from Group 4; five tumor samples from Group 5 and 6, respectively, were snap frozen in liquid nitrogen and kept at −80° C. Total 22 tumor samples were collected.
Statistical Analyses: A one-way ANOVA was performed to compare tumor volumes among groups. All data were analyzed using the SPSS 17.0 software; p<0.05 was considered statistically significant.

[2] = test system: CCI rats, mechanical allodynia; details: single oral dose
Description: Chronic Constriction Injury (CCI) Model of Neuropathic Pain in Rats. […] Chronic constriction injury of the sciatic nerve was produced by tying four loose ligatures around the left sciatic nerve according to the method of Bennett and Xie. […] Calibrated von Frey filaments were used to determine the lowest mechanical (tactile) threshold required to evoke a brisk paw withdrawal reflex in the rat hindpaws. Rats were allowed to acclimatize in wire mesh cages for 15-20 min prior to von Frey testing. Assessment of paw withdrawal thresholds (PWTs) using von Frey filaments was undertaken prior to CCI-surgery (pre-surgery baseline on day 0). Before the drug dosing on day 14, the pre-dose baseline was recorded for each rat. […] Drug-naïve CCI-rats (n=4-6 per group) were used. The oral vehicle was 0.5% CMC-Na/0.1% Tween 80 in distilled water. The positive control gabapentin was dissolved in the vehicle and orally given at 100 mg/kg (by oral gavage). Test compound was suspended in the vehicle and orally given at 50 mg/kg and 100 mg/kg.

[3] = test system: carrageenan-induced pain in rats; test: Carrageenan Pain Model; assay type: in vivo, Sprague-Dawley rats; details: carrageenan rat model, 30 mg/kg, p.o.
Description: Carrageenan Pain Model The carrageenan model is a fast, reliable model used to assess the ability of analgesics to block inflammatory pain. The analgesic effects of test article combinations on pain generation are assayed using the carrageenan-induced pain model in rats. Adult male Sprague-Dawley rats are administered study drugs orally (vehicle, compounds of present disclosure) once daily for 2 days (day −2 and day −1) and 30 minutes prior to the carrageenan injection on day 0 (time=0). For the carrageenan injection, animals are lightly anesthetized and 0.1 ml of 2% carrageenan is injected into the plantar surface of the right hind paw. The positive control indomethacin (30 mg/kg, p.o.) is administered orally immediately before the carrageenan injection. Paw volumes (right and left) are measured using a Plethysmometer before drug administration on day −2 and serve as a baseline measurement. The paw volumes are measured again two hours post carrageenan injection. The degree of mechanical allodynia is measured by a blinded observer using Von Frey filaments applied to the plantar surface of the hind paws in an increasing numerical order. Each filament increases the force applied on the paw. The filaments are applied until animal paw withdrawal is achieved. […] Results are expressed as mean change from baseline across five timepoints post carrageenan injection.

Nc1ccn([C@@H]2O[C@H](CO)[C@@H](O)C2(F)F)c(=O)n1 [Gemcitabine, gemcitabine]
TGI (%, D18) ([1]; gemcitabine 10 mg/kg (alone or with Compound-12, see label)): 3%
TGI (%, D18) ([1]; gemcitabine 20 mg/kg (alone or with Compound-12, see label)): 48%
Tumor volume (Mean ± SEM) ([1]; Day 7, gemcitabine 10 mg/kg (alone or with Compound-12, see label)): 83 ± 4 mm^3
Tumor volume (Mean ± SEM) ([1]; Day 7, gemcitabine 20 mg/kg (alone or with Compound-12, see label)): 83 ± 3 mm^3
Tumor volume (Mean ± SEM) ([1]; Day 11, gemcitabine 10 mg/kg (alone or with Compound-12, see label)): 142 ± 12 mm^3
Tumor volume (Mean ± SEM) ([1]; Day 11, gemcitabine 20 mg/kg (alone or with Compound-12, see label)): 109 ± 8 mm^3
Tumor volume (Mean ± SEM) ([1]; Day 14, gemcitabine 20 mg/kg (alone or with Compound-12, see label)): 138 ± 9 mm^3
Tumor volume (Mean ± SEM) ([1]; Day 18, gemcitabine 10 mg/kg (alone or with Compound-12, see label)): 346 ± 21 mm^3
Tumor volume (Mean ± SEM) ([1]; Day 19, gemcitabine 10 mg/kg (alone or with Compound-12, see label)): 374 ± 19 mm^3
Tumor volume (Mean ± SEM) ([1]; Day 19, gemcitabine 20 mg/kg (alone or with Compound-12, see label)): 216 ± 18 mm^3

NCC1(CC(=O)O)CCCCC1 [gabapentin, reference compound]
side effects observed in dosed CCI-rats [2]: drowsiness or motor incoordination

COc1ccc2c(c1)c(CC(=O)O)c(C)n2C(=O)c1ccc(Cl)cc1 [indomethacin, reference compound]
analgesic effect [3]: about 100%
